Patent US20220241376A1, “METHOD FOR DECREASING ADVERSE-EFFECTS OF INTERFERON” (ENYO PHARMA, priority 2019, published 2022)

Test system: patients chronically infected with HBV
Assay: 4-week clinical treatment combining weekly sub-cutaneous pegylated IFNα2a (PEG-IFN) with daily oral EYP001a or placebo: treatment emergent adverse events
Details: compared with Placebo + IFN; significant differences (Table 2)

## O=C(O)c1cc2c(Cl)c(N3CCN(S(=O)(=O)c4c(Cl)cccc4Cl)CC3)ccc2o1 [EYP001a]
  frequency of flu-like AE when IFN treatment was combined with EYP001: lower up to three times less
